Source: patent publication US8609653B2, “Azaindole compounds and methods for treating HIV” (priority 2011, dated 2013)
Counter-ions that a name gives are not always drawn.

System: HIV
Assay: MT4 assay: antiviral HIV activity in MT-4 cells
Type: cell-based
Details: HTLV-1 transformed cell line MT-4; read-out 96 hours later with cell titer glo; 10 point dose response; trifluoroacetic acid salt; read-out: HIV MT4 Assay IC50
Protocol: Antiviral HIV activity and cytotoxicity values for compounds of the invention from Table 1 were measured in parallel in the HTLV-1 transformed cell line MT-4 based on the method previously described (Hazen et al., 2007, In vitro antiviral activity of the novel, tyrosyl-based human immunodeficiency virus (HIV) type 1 protease inhibitor brecanavir (GW640385) in combination with other antiretrovirals and against a panel of protease inhibitor-resistant HIV (Hazen et al., “In vitro antiviral activity of the novel, tyrosyl-based human immunodeficiency virus (HIV) type 1 protease inhibitor brecanavir (GW640385) in combination with other antiretrovirals and against a panel of protease inhibitor-resistant HIV”, Antimicrob. Agents Chemother. 2007, 51: 3147-3154; and Pauwels et al., “Sensitive and rapid assay on MT-4 cells for the detection of antiviral compounds against the AIDS virus”, J. of Virological Methods 1987, 16: 171-185).
Luciferase activity was measured 96 hours later by adding a cell titer glo (Promega, Madison, Wis.). Percent inhibition of cell protection data was plotted relative to no compound control. Under the same condition, cytotoxicity of the compounds was determined using cell titer Glo™ (Promega, Madison, Wis.). IC50s were determined from a 10 point dose response curve using 3-4-fold serial dilution for each compound, which spans a concentration range>1000 fold.
These values are plotted against the molar compound concentrations using the standard four parameter logistic equation: y=((Vmax*x^n)/(K^n+x^n))+Y2
Y2=minimum y n=slope factor
Vmax=maximum y x=compound concentration [M]

Structure (SMILES) | IC50
Cc1nc2c(ccn2Cc2ccc(F)c(F)c2)c(-c2ccc3c(c2C)NCCO3)c1[C@H](OC(C)(C)C)C(=O)O (atropisomer, axis not shown; (P)) [Example 100, (2S)(P)-2-(tert-butoxy)-2-(1-(3,4-difluorobenzyl)-6-methyl-4-(5-methyl-3,4-dihydro-2H-benzo[b][1,4]oxazin-6-yl)-1H-pyrrolo[2,3-b]pyridin-5-yl)acetic acid, trifluoroacetic acid salt] | 0.1 µM

Same assay, conditions: Human immunodeficiency virus 1, MT4, 96 h, read-out: HIV MT4 Assay IC50 (μM), HTLV-1 transformed cell line MT-4; read-out 96 hours later with cell titer glo; 10 point dose response

Structure (SMILES) | IC50
Cc1nc2c(ccn2Cc2ccccc2)c(-c2ccc3c(c2)CCCO3)c1C(OC(C)(C)C)C(=O)O (stereo not drawn) [Example 43, 2-(1-benzyl-4-(chroman-6-yl)-6-methyl-1H-pyrrolo[2,3-b]pyridin-5-yl)-2-(tert-butoxy)acetic acid] | 0.084 µM
Cc1ccc(-c2c(C(OC(C)(C)C)C(=O)O)c(C)nc3c2ccn3Cc2ccc(Cl)cc2)cc1 (stereo not drawn) [Example 77, 2-(tert-Butoxy)-2-(1-(4-chlorobenzyl)-6-methyl-4-(p-tolyl)-1H-pyrrolo[2,3-b]pyridin-5-yl)acetic acid] | 0.65 µM
Cc1nc2c(ccn2CCc2ccc(F)cc2)c(-c2ccc3c(c2)CCCO3)c1C(OC(C)(C)C)C(=O)O (stereo not drawn) [Example 42, 2-(tert-butoxy)-2-(4-(chroman-6-yl)-1-(4-fluorophenethyl)-6-methyl-1H-pyrrolo[2,3-b]pyridin-5-yl)acetic acid] | 0.58 µM
COc1ccc(F)c(F)c1Cn1ccc2c(-c3ccc(C)cc3)c(C(OC(C)(C)C)C(=O)O)c(C)nc21 (stereo not drawn) [Example 46, 2-(tert-butoxy)-2-(1-(2,3-difluoro-6-methoxybenzyl)-6-methyl-4-(p-tolyl)-1H-pyrrolo[2,3-b]pyridin-5-yl)acetic acid] | 0.1 µM
Cc1nc2c(ccn2Cc2ccc(F)c(F)c2)c(-c2ccc(Cl)c(F)c2)c1[C@H](OC(C)(C)C)C(=O)O [Example 106, (S)-2-(tert-Butoxy)-2-(4-(4-chloro-3-fluorophenyl)-1-(3,4-difluorobenzyl)-6-methyl-1H-pyrrolo[2,3-b]pyridin-5-yl)acetic acid] | 0.1 µM
Cc1ccc(-c2c(C(OC(C)(C)C)C(=O)O)c(C)nc3c2ccn3Cc2c(Cl)ccc(F)c2F)cc1 (stereo not drawn) [Example 49, 2-(tert-butoxy)-2-(1-(6-chloro-2,3-difluorobenzyl)-6-methyl-4-(p-tolyl)-1H-pyrrolo[2,3-b]pyridin-5-yl)acetic acid] | 0.123 µM
Cc1ccc(-c2c(C(OC(C)(C)C)C(=O)O)c(C)nc3c2ccn3Cc2c(F)cc(F)cc2F)cc1 (stereo not drawn) [Example 26, 2-(tert-butoxy)-2-(6-methyl-4-(p-tolyl)-1-(2,4,6-trifluorobenzyl)-1H-pyrrolo[2,3-b]pyridin-5-yl)acetic acid] | 0.12 µM
COc1ccc(Cn2ccc3c(-c4ccc5c(c4)CCCO5)c(C(OC(C)(C)C)C(=O)O)c(C)nc32)cc1 (stereo not drawn) [Example 38, 2-(tert-butoxy)-2-(4-(chroman-6-yl)-1-(4-methoxybenzyl)-6-methyl-1H-pyrrolo[2,3-b]pyridin-5-yl)acetic acid] | 0.12 µM
Cc1ccc(-c2c(C(OC(C)(C)C)C(=O)O)c(C)nc3c2ccn3C2CCC(C)CC2)cc1 [Example 74, 2-(tert-butoxy)-2-(6-methyl-1-((1R,4R)-4-methylcyclohexyl)-4-(p-tolyl)-1H-pyrrolo[2,3-b]pyridin-5-yl)acetic acid] | 2.33 µM
Cc1ccc(-c2c([C@H](OC(C)(C)C)C(=O)O)c(C)nc3c2ccn3Cc2ccc(F)cc2)cc1 [Example 2, (S)-2-(tert-butoxy)-2-(1-(4-fluorobenzyl)-6-methyl-4-(p-tolyl)-1H-pyrrolo[2,3-b]pyridin-5-yl)acetic acid] | 0.08 µM
Cc1nc2c(ccn2Cc2cccc(F)c2F)c(-c2ccc3c(c2C)NCCO3)c1[C@H](OC(C)(C)C)C(=O)O (atropisomer, axis not shown; (M)) [Example 104, (S)-2-(tert-Butoxy)-2-((M)-1-(2,3-difluorobenzyl)-6-methyl-4-(5-methyl-3,4-dihydro-2H-benzo[b][1,4]oxazin-6-yl)-1H-pyrrolo[2,3-b]pyridin-5-yl)acetic acid] | 0.013 µM
Cc1nc2c(ccn2Cc2cccc(OC(F)(F)F)c2)c(-c2ccc3c(c2)CCCO3)c1C(OC(C)(C)C)C(=O)O (stereo not drawn) [Example 60, 2-(tert-butoxy)-2-(4-(chroman-6-yl)-6-methyl-1-(3-(trifluoromethoxy)benzyl)-1H-pyrrolo[2,3-b]pyridin-5-yl)acetic acid] | 0.181 µM
Cc1ccc(-c2c(C(OC(C)(C)C)C(=O)O)c(C)nc3c2ccn3Cc2ccc(F)cc2)cc1 (stereo not drawn) [Example 1, 2-(tert-butoxy)-2-(1-(4-fluorobenzyl)-6-methyl-4-(p-tolyl)-1H-pyrrolo[2,3-b]pyridin-5-yl)acetic acid] | 0.18 µM
Cc1nc2c(c(-c3ccc4c(c3C)CCCO4)c1[C@H](OC(C)(C)C)C(=O)O)CCN2Cc1cccc(F)c1F (atropisomer, axis not shown; (M)) [Example 119] | 0.009 µM
Cc1nc2c(ccn2Cc2ccc(F)c(F)c2)c(-c2ccc3c(c2Cl)NCCO3)c1[C@H](OC(C)(C)C)C(=O)O (atropisomer, axis not shown; (M)) [Example 113, (2S)(2M)-2-(tert-Butoxy)-2-(4-(5-chloro-3,4-dihydro-2H-benzo[b][1,4]oxazin-6-yl)-1-(3,4-difluorobenzyl)-6-methyl-M-pyrrolo[2,3-b]pyridin-5-yl)acetic acid, Trifluoroacetic acid salt] | 0.009 µM
Cc1nc2c(ccn2Cc2cccc(F)c2F)c(-c2cc(F)c3c(c2C)NCCO3)c1[C@H](OC(C)(C)C)C(=O)O (atropisomer, axis not shown; (M)) [Example 132] | 0.021 µM
Cc1cc(Cn2ccc3c(-c4ccc5c(c4)CCCO5)c(C(OC(C)(C)C)C(=O)O)c(C)nc32)ccc1F (stereo not drawn) [Example 30, 2-(tert-butoxy)-2-(4-(chroman-6-yl)-1-(4-fluoro-3-methylbenzyl)-6-methyl-1H-pyrrolo[2,3-b]pyridin-5-yl)acetic acid] | 0.07 µM
Cc1nc2c(ccn2CC2CCOCC2)c(-c2ccc3c(c2)CCCO3)c1C(OC(C)(C)C)C(=O)O (stereo not drawn) [Example 67, 2-(tert-butoxy)-2-(4-(chroman-6-yl)-6-methyl-1-((tetrahydro-2H-pyran-4-yl)methyl)-1H-pyrrolo[2,3-b]pyridin-5-yl)acetic acid] | 0.59 µM
Cc1ccc(F)c(Cn2ccc3c(-c4ccc5c(c4)CCCO5)c(C(OC(C)(C)C)C(=O)O)c(C)nc32)c1Cl (stereo not drawn) [Example 53, 2-(tert-butoxy)-2-(1-(2-chloro-6-fluoro-3-methylbenzyl)-4-(chroman-6-yl)-6-methyl-1H-pyrrolo[2,3-b]pyridin-5-yl)acetic acid] | 0.055 µM
Cc1ccc(-c2c(C(OC(C)(C)C)C(=O)O)c(C)nc3c2ccn3Cc2ccc(F)c(C)c2)cc1 (stereo not drawn) [Example 25, 2-(tert-butoxy)-2-(1-(4-fluoro-3-methylbenzyl)-6-methyl-4-(p-tolyl)-1H-pyrrolo[2,3-b]pyridin-5-yl)acetic acid] | 0.14 µM
Cc1nc2c(ccn2Cc2ccc(C(F)(F)F)cc2F)c(-c2ccc3c(c2)CCCO3)c1C(OC(C)(C)C)C(=O)O (stereo not drawn) [Example 59, 2-(tert-butoxy)-2-(4-(chroman-6-yl)-1-(2-fluoro-4-(trifluoromethyl)benzyl)-6-methyl-1H-pyrrolo[2,3-b]pyridin-5-yl)acetic acid] | 0.38 µM
Cc1ccc(-c2c(C(OC(C)(C)C)C(=O)O)c(C)nc3c2ccn3Cc2ccccn2)cc1 (stereo not drawn) [Example 4, 2-(tert-Butoxy)-2-(6-methyl-1-(pyridin-2-ylmethyl)-4-(p-tolyl)-1H-pyrrolo[2,3-b]pyridin-5-yl)acetic acid, Trifluoroacetic acid salt] | 1.05 µM
Cc1ccc(-c2c(C(OC(C)(C)C)C(=O)O)c(C)nc3c2ccn3Cc2ccc3c(c2)OCO3)cc1 (stereo not drawn) [Example 80, 2-(1-(Benzo[d][1,3]dioxol-5-ylmethyl)-6-methyl-4-(p-tolyl)-1H-pyrrolo[2,3-b]pyridin-5-yl)-2-(tert-butoxy)acetic acid] | 0.8 µM
Cc1ccc(-c2c(C(OC(C)(C)C)C(=O)O)c(C)nc3c2ccn3Cc2ccc(F)cc2F)cc1 (stereo not drawn) [Example 24, 2-(tert-butoxy)-2-(1-(2,4-difluorobenzyl)-6-methyl-4-(p-tolyl)-1H-pyrrolo[2,3-b]pyridin-5-yl)acetic acid] | 0.125 µM
Cc1nc2c(ccn2Cc2c(F)cccc2F)c(-c2ccc3c(c2)CCCO3)c1C(OC(C)(C)C)C(=O)O (stereo not drawn) [Example 51, 2-(tert-butoxy)-2-(4-(chroman-6-yl)-1-(2,6-difluorobenzyl)-6-methyl-1H-pyrrolo[2,3-b]pyridin-5-yl)acetic acid] | 0.09 µM

Same assay, conditions: read-out: HIV MT4 Assay IC50; HTLV-1 transformed cell line MT-4; read-out 96 hours later with cell titer glo; 10 point dose response; Trifluoroacetic acid salt

Structure (SMILES) | IC50
Cc1nc2c(c3c(n2C)CCCC3)c(-c2ccc3c(c2C)NCCO3)c1[C@H](OC(C)(C)C)C(=O)O (atropisomer, axis not shown; (P)) [Example 129, (2S)(P)-2-(tert-butoxy)-2-(2,9-dimethyl-4-(5-methyl-3,4-dihydro-2H-benzo[b][1,4]oxazin-6-yl)-6,7,8,9-tetrahydro-5H-pyrido[2,3-b]indol-3-yl)acetic acid, Trifluoroacetic acid salt] | 1 µM
